Data taken from patent US20250197372A1 (priority 2020, published 2025).

Assays:
Assay type in all cases: biochemical
[1] = target: rat maltase (partially purified alpha-glucosidase from intestinal rat powder); experiment: Intestinal alpha-glucosidase assay, maltose substrate (Glucose GO Kit)
How it was run: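 Rat intestinal enzyme prep + test cpd dilutions, 60 min 37 °C; add maltose (maltase) or sucrose (sucrase), 30 min 37 °C; stop 90 °C 5 min. Glucose readout (glucose oxidase kit). IC50 from 4-PL fit of % inhibition vs conc.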

[2] = target: T1, recombinant alpha-glucosidase II (murine full-length glucosidase II, alpha and beta subunits, Glu 2) (Mus musculus, UniProt Q8BHN3); experiment: Alpha-glucosidase II assay (4-methylumbelliferyl-alpha-D-pyranoside substrate, fluorescence); conditions: Glucosidase 2; read-out: Glu2 IC50
T1 construct: made in house; host or cells: HEK-293T cells transduced with BacMam viruses (75% alpha, 25% beta); protein harvested from culture supernatant
T1 sequence (O08795 15-521): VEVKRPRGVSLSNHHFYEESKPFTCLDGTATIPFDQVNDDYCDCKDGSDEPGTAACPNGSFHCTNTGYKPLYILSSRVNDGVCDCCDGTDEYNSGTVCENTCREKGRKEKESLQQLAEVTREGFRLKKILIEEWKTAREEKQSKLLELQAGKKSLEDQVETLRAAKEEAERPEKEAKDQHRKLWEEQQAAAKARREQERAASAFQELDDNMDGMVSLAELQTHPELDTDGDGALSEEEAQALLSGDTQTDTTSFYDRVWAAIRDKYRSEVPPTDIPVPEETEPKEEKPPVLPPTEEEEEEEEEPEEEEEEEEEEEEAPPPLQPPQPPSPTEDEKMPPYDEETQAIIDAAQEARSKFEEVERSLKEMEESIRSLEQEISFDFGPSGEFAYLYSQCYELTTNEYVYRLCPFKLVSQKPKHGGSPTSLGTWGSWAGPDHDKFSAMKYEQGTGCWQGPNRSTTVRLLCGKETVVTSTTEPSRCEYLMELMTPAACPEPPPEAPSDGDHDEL
T1 sequence (Q8BHN3 33-944): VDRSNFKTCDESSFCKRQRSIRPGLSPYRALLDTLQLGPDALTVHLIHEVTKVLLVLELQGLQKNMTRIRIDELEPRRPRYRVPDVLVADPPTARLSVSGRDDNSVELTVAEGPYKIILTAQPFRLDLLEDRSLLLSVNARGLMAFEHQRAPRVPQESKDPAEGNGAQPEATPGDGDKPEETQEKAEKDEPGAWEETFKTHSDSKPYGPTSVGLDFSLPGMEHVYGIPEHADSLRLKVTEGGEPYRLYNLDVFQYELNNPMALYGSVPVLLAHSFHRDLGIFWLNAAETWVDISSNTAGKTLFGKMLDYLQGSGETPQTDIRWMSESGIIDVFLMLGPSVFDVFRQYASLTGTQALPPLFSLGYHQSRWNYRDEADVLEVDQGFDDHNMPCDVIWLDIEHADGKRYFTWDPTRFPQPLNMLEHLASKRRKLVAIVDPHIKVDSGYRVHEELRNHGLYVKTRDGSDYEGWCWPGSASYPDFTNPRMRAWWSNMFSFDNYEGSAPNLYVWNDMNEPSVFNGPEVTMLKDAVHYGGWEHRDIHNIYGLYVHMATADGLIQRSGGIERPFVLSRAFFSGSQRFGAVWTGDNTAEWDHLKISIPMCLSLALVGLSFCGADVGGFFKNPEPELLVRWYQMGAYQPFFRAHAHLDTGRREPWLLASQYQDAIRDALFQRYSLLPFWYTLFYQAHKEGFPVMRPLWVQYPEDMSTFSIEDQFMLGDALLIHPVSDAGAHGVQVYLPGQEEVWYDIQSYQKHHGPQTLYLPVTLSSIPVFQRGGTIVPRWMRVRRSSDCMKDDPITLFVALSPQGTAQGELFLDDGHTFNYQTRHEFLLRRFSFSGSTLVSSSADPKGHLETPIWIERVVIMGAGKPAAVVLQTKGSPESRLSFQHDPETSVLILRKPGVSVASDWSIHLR

[3] = target: recombinant human GAA (acid alpha-glucosidase) (Homo sapiens, UniProt P10253); experiment: Acid alpha-glucosidase (GAA) assay (4-methylumbelliferyl-alpha-D-pyranoside substrate, fluorescence)
How it was run: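 IC50 from 4-PL curve fit of percent inhibition, based on fluorescence (365/440 nm) of released methylumbelliferone relative to uninhibited enzyme. Compound dilutions and human GAA incubated 60 min, 37 °C, before 20 min substrate reaction at 37 °C, quenched at pH 10.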

[4] = target: T2, recombinant human GBA (beta-glucocerebrosidase) (Homo sapiens, UniProt P04062); experiment: Beta-glucocerebrosidase (GBA, glucosylceramidase) assay (4-methylumbelliferyl-beta-D-pyranoside substrate, fluorescence)
T2 sequence (P04062 40-536): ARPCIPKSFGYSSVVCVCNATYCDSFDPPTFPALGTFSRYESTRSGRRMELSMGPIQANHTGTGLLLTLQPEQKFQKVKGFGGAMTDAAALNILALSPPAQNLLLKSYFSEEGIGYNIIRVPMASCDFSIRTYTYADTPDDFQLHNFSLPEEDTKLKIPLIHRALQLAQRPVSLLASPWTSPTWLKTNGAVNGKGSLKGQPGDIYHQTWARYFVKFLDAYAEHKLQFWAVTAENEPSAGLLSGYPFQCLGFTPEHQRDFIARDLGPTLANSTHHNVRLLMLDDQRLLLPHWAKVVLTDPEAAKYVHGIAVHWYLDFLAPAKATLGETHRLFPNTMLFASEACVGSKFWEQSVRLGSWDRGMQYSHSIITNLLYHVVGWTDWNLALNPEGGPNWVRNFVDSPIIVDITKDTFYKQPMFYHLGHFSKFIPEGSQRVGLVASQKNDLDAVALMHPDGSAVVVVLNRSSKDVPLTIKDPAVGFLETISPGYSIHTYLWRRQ
How it was run: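 IC50 by four-parameter fit of percent inhibition, with product fluorescence (365/440 nm) read after a glycine/NaOH pH 10 stop. Compound and commercial recombinant human enzyme were incubated 60 min at 37 °C before a further 60 min at 37 °C with 4-methylumbelliferyl-beta-D-pyranoside substrate.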

Nc1ccc(NCCc2ccccc2CCN2C[C@H](O)[C@@H](O)[C@H](O)[C@H]2CO)c([N+](=O)[O-])c1Cl [Compound 1239, (2R,3R,4R,5S)-1-[2-(2-{2-[(4-amino-3-chloro-2-nitrophenyl)amino]ethyl}phenyl)ethyl]-2-(hydroxymethyl)piperidine-3,4,5-triol]
IC50 [1]: < 1 nM | IC50 [2]: 108 nM | IC50 [3]: 1240 nM | IC50 [4]: 114 nM

[N-]=[N+]=Nc1ccc(NCCc2cccc(CCN3C[C@H](O)[C@@H](O)[C@H](O)[C@H]3CO)c2)c([N+](=O)[O-])c1 [Compound 1240, (2R,3R,4R,5S)-1-[2-(3-{2-[(4-azido-2-nitrophenyl)amino]ethyl}phenyl)ethyl]-2-(hydroxymethyl)piperidine-3,4,5-triol]
IC50 [1]: 701 nM | IC50 [2]: 45 nM | IC50 [3]: 12800 nM | IC50 [4]: 496 nM

CN(C)Cc1ccc(NCCCCCCN2C[C@H](O)[C@@H](O)[C@H](O)[C@H]2CO)c(C(=O)O)c1 [Compound 1245, 5-[(dimethylamino)methyl]-2-({6-[(2R,3R,4R,5S)-3,4,5-trihydroxy-2-(hydroxymethyl)piperidin-1-yl]hexyl}amino)benzoic acid]
IC50 [1]: 32 nM | IC50 [2]: 51 nM | IC50 [3]: 392 nM | IC50 [4]: 56000 nM

Cc1nc(=O)c2cc(-c3ncccn3)ccc2n1CCCCCCN1C[C@H](O)[C@@H](O)[C@H](O)[C@H]1CO [Compound 1246, 2-methyl-6-(pyrimidin-2-yl)-1-{6-[(2R,3R,4R,5S)-3,4,5-trihydroxy-2-(hydroxymethyl)piperidin-1-yl]hexyl}-1,4-dihydroquinazolin-4-one]
IC50 [1]: > 100000 nM | IC50 [2]: 4 nM | IC50 [3]: 46 nM | IC50 [4]: 21600 nM

CS(C)=NS(=O)(=O)c1cc(-c2ncccn2)ccc1NCCCCCCN1C[C@H](O)[C@@H](O)[C@H](O)[C@H]1CO [Compound 1247, N-(dimethyl-2-sulfanylidene)-5-(pyrimidin-2-yl)-2-({6-[(2R,3R,4R,5S)-3,4,5-trihydroxy-2-(hydroxymethyl)piperidin-1-yl]hexyl}amino)benzene-1-sulfonamide]
IC50 [1]: 18 nM | IC50 [2]: 6 nM | IC50 [3]: 53 nM | IC50 [4]: 11800 nM

[N-]=[N+]=Nc1ccc(NCCc2ccccc2CCN2C[C@H](O)[C@@H](O)[C@H](O)[C@H]2CO)c([N+](=O)[O-])c1 [Compound 1249]
IC50 [1]: 3490 nM | IC50 [2]: 162 nM | IC50 [3]: 1920 nM | IC50 [4]: 320 nM

N#Cc1ccc(F)cc1NCCCCCCN1C[C@H](O)[C@@H](O)[C@H](O)[C@H]1CO [Compound 1251, 4-fluoro-2-({6-[(2R,3R,4R,5S)-3,4,5-trihydroxy-2-(hydroxymethyl)piperidin-1-yl]hexyl}amino)benzonitrile]
IC50 [1]: 4 nM | IC50 [2]: 12 nM | IC50 [3]: 41 nM | IC50 [4]: 1410 nM

[N-]=[N+]=Nc1ccc(N2CC(OCCN3C[C@H](O)[C@@H](O)[C@H](O)[C@H]3CO)C2)c([N+](=O)[O-])c1 [Compound 1252, (2R,3R,4R,5S)-1-(2-{[1-(4-azido-2-nitrophenyl)azetidin-3-yl]oxy}ethyl)-2-(hydroxymethyl)piperidine-3,4,5-triol]
IC50 [1]: 37 nM | IC50 [2]: 82 nM | IC50 [3]: 141 nM | IC50 [4]: 8670 nM

Nc1ccc(NCCn2cc(CCN3C[C@H](O)[C@@H](O)[C@H](O)[C@H]3CO)nn2)c([N+](=O)[O-])c1Cl [Compound 1253, (2R,3R,4R,5S)-1-[2-(1-{2-[(4-amino-3-chloro-2-nitrophenyl)amino]ethyl}-1H-1,2,3-triazol-4-yl)ethyl]-2-(hydroxymethyl)piperidine-3,4,5-triol]
IC50 [1]: 777 nM | IC50 [2]: 225 nM | IC50 [3]: 664 nM | IC50 [4]: > 100000 nM

[N-]=[N+]=Nc1ccc(N2CCN(CCN3C[C@H](O)[C@@H](O)[C@H](O)[C@H]3CO)CC2)c([N+](=O)[O-])c1 [Compound 1254, (2R,3R,4R,5S)-1-{2-[4-(4-azido-2-nitrophenyl)piperazin-1-yl]ethyl}-2-(hydroxymethyl)piperidine-3,4,5-triol]
IC50 [1]: 1210 nM | IC50 [2]: 865 nM | IC50 [3]: > 100000 nM | IC50 [4]: > 100000 nM

[N-]=[N+]=Nc1ccc(NCCOCCN2C[C@H](O)[C@@H](O)[C@H](O)[C@H]2CO)c([N+](=O)[O-])c1 [Compound 1255, (2R,3R,4R,5S)-1-(2-{2-[(4-azido-2-nitrophenyl)amino]ethoxy}ethyl)-2-(hydroxymethyl)piperidine-3,4,5-triol]
IC50 [1]: 33 nM | IC50 [2]: 29 nM | IC50 [3]: 228 nM | IC50 [4]: 3080 nM

N#Cc1cc(-c2ncccn2)ccc1NCCCCCCN1C[C@H](O)[C@@H](O)[C@H](O)[C@H]1CO [Compound 1256, 5-(pyrimidin-2-yl)-2-({6-[(2R,3R,4R,5S)-3,4,5-trihydroxy-2-(hydroxymethyl)piperidin-1-yl]hexyl}amino)benzonitrile]
IC50 [1]: 10 nM | IC50 [2]: 6 nM | IC50 [3]: 33 nM | IC50 [4]: 1230 nM

CN(C)Cc1ccc(NCCCCCCN2C[C@H](O)[C@@H](O)[C@H](O)[C@H]2CO)c(C#N)c1 [Compound 1257, 5-[(dimethylamino)methyl]-2-({6-[(2R,3R,4R,5S)-3,4,5-trihydroxy-2-(hydroxymethyl)piperidin-1-yl]hexyl}amino)benzonitrile]
IC50 [1]: 8 nM | IC50 [2]: 19 nM | IC50 [3]: 73 nM | IC50 [4]: 6530 nM

OC[C@@H]1[C@@H](O)[C@H](O)[C@@H](O)CN1CCCCCCNc1ccc(-c2ncccn2)cc1C(F)(F)F [Compound 1258, (2R,3R,4R,5S)-2-(hydroxymethyl)-1-(6-{[4-(pyrimidin-2-yl)-2-(trifluoromethyl)phenyl]amino}hexyl)piperidine-3,4,5-triol]
IC50 [1]: 19 nM | IC50 [2]: 31 nM | IC50 [3]: 32 nM | IC50 [4]: 1350 nM

CN(C)Cc1ccc(NCCCCCCN2C[C@H](O)[C@@H](O)[C@H](O)[C@H]2CO)c(C(F)(F)F)c1 [Compound 1259, (2R,3R,4R,5S)-1-[6-({4-[(dimethylamino)methyl]-2-(trifluoromethyl)phenyl}amino)hexyl]-2-(hydroxymethyl)piperidine-3,4,5-triol]
IC50 [1]: 20 nM | IC50 [2]: 72 nM | IC50 [3]: 238 nM | IC50 [4]: 1350 nM

NS(=O)(=O)c1cc(-c2ncccn2)ccc1NCCCCCCN1C[C@H](O)[C@@H](O)[C@H](O)[C@H]1CO [Compound 1265, 5-(pyrimidin-2-yl)-2-({6-[(2R,3R,4R,5S)-3,4,5-trihydroxy-2-(hydroxymethyl)piperidin-1-yl]hexyl}amino)benzene-1-sulfonamide]
IC50 [1]: 5 nM | IC50 [2]: 12 nM | IC50 [3]: 35 nM | IC50 [4]: 5080 nM

NC(=O)c1cc(-c2ncccn2)ccc1NCCCCCCN1C[C@H](O)[C@@H](O)[C@H](O)[C@H]1CO [Compound 1266, 5-(pyrimidin-2-yl)-2-({6-[(2R,3R,4R,5S)-3,4,5-trihydroxy-2-(hydroxymethyl)piperidin-1-yl]hexyl}amino)benzamide]
IC50 [1]: 2 nM | IC50 [2]: 7 nM | IC50 [3]: 103 nM | IC50 [4]: 6340 nM

[N-]=[N+]=Nc1ccc(NCCOC(=O)NCCN2C[C@H](O)[C@@H](O)[C@H](O)[C@H]2CO)c([N+](=O)[O-])c1 [Compound 1268, 2-[(4-azido-2-nitrophenyl)amino]ethyl N-{2-[(2R,3R,4R,5S)-3,4,5-trihydroxy-2-(hydroxymethyl)piperidin-1-yl]ethyl}carbamate]
IC50 [1]: 68 nM | IC50 [2]: 32 nM | IC50 [3]: 617 nM | IC50 [4]: 1520 nM

[N-]=[N+]=Nc1ccc(NCCC(O)C(O)CCN2C[C@H](O)[C@@H](O)[C@H](O)[C@H]2CO)c([N+](=O)[O-])c1 (stereo partly drawn) [Compound 1270, (2R,3R,4R,5S)-1-{6-[(4-azido-2-nitrophenyl)amino]-3,4-dihydroxy-hexyl}-2-(hydroxymethyl)piperidine-3,4,5-triol]
IC50 [1]: 57 nM | IC50 [2]: 46 nM | IC50 [3]: 190 nM | IC50 [4]: 81 nM

[N-]=[N+]=Nc1ccc(NCCN2CC(OCCN3C[C@H](O)[C@@H](O)[C@H](O)[C@H]3CO)C2)c([N+](=O)[O-])c1 [Compound 1271, (2R,3R,4R,5S)-1-{2-[(1-{2-[(4-azido-2-nitrophenyl)amino]ethyl}azetidin-3-yl)oxy]ethyl}-2-(hydroxymethyl)piperidine-3,4,5-triol]
IC50 [1]: 33 nM | IC50 [2]: 539 nM | IC50 [3]: 1360 nM | IC50 [4]: 1900 nM
